Each structure is given as a SMILES string. Like-named read-outs stand apart in the source and are kept apart here.

Test [1] concerns LNCaP prostate cancer cell. Put plainly: LNCaP cell viability (CellTiter-Glo). The note with it: Homo sapiens, 72 h, LNCaP cell viability, 3 days, CellTiter-Glo. The class given is cell-based. The protocol:
LNCaP cells seeded in 96-well plates were treated with 10 μM GNE-781 or selected bivalent compounds, i.e. P-001, P-002, and P-019, following a 12-point 3-fold serial dilution. Three days after treatment, cell viability was determined using the CellTiter-Glo kit (Promega) following manufacturer's instructions. Cell viability was normalized to the mean values of 3 replicates of untreated cells. Dose-dependent response was analyzed following the least-squares non-linear regression method using the GraphPad Prism 5.0 software.
LNCaP (clone FGC), 22RV1 and other cells were cultured at 37° C. with 5% CO 2 in RPMI 1640 Medium supplemented with 10% fetal bovine serum. Cells were authenticated using the short tandem repeat (STR) assays. Mycoplasma test results were negative.
Cells were seeded at a density of 5000 cells per well in 96-well assay plates and treated with test compounds following a 12-point 3-fold serial dilution. Three days later, cell viability was determined using the CellTiter-Glo assay kit according to the manufactureR's instructions. The dose-response curves were determined and IC50 values were calculated using the GraphPad Prism software following a nonlinear regression (least squares fit) method.

Another test has as its target P300 (Homo sapiens, UniProt Q09472). Put plainly: percentage of inhibition (degradation) of p300 at 10 nM, Tables 2-4. The class given is cell-based. Details: LNCaP or 22RV1 cells that express CBP/P300 proteins were treated with GNE-781 or the bivalent compounds; endogenous in cells; host or cells: LNCaP or 22RV1 (not given). Particulars: for inhibition at 0.01 µM: read-out: Degradation (10 nM). The protocol: Cultured cells or tissue chunks were washed with cold PBS once and lysed in cold RIPA buffer supplemented with protease inhibitors and phosphatase inhibitors (Beyotime Biotechnology). The solutions were then incubated at 4° C. for 30 minutes with gentle agitation to fully lyse cells. Cell lysates were centrifuged at 13,000 rpm for 10 minutes at 4° C. and pellets were discarded. Total protein concentrations in the lysates were determined by BCA assays (Beyotime Biotechnology). Cell lysates were mixed with Laemmli loading buffer to 1 X and heated at 99° C. for 5 min. Proteins were resolved on SDS-PAGE and visualized by chemiluminescence. Images were taken by a ChemiDoc MP Imaging system (Bio-Rad). Protein bands were quantitated using the accompanied software provided by Bio-Rad.

Sequence of P300 (Q09472 whole entry): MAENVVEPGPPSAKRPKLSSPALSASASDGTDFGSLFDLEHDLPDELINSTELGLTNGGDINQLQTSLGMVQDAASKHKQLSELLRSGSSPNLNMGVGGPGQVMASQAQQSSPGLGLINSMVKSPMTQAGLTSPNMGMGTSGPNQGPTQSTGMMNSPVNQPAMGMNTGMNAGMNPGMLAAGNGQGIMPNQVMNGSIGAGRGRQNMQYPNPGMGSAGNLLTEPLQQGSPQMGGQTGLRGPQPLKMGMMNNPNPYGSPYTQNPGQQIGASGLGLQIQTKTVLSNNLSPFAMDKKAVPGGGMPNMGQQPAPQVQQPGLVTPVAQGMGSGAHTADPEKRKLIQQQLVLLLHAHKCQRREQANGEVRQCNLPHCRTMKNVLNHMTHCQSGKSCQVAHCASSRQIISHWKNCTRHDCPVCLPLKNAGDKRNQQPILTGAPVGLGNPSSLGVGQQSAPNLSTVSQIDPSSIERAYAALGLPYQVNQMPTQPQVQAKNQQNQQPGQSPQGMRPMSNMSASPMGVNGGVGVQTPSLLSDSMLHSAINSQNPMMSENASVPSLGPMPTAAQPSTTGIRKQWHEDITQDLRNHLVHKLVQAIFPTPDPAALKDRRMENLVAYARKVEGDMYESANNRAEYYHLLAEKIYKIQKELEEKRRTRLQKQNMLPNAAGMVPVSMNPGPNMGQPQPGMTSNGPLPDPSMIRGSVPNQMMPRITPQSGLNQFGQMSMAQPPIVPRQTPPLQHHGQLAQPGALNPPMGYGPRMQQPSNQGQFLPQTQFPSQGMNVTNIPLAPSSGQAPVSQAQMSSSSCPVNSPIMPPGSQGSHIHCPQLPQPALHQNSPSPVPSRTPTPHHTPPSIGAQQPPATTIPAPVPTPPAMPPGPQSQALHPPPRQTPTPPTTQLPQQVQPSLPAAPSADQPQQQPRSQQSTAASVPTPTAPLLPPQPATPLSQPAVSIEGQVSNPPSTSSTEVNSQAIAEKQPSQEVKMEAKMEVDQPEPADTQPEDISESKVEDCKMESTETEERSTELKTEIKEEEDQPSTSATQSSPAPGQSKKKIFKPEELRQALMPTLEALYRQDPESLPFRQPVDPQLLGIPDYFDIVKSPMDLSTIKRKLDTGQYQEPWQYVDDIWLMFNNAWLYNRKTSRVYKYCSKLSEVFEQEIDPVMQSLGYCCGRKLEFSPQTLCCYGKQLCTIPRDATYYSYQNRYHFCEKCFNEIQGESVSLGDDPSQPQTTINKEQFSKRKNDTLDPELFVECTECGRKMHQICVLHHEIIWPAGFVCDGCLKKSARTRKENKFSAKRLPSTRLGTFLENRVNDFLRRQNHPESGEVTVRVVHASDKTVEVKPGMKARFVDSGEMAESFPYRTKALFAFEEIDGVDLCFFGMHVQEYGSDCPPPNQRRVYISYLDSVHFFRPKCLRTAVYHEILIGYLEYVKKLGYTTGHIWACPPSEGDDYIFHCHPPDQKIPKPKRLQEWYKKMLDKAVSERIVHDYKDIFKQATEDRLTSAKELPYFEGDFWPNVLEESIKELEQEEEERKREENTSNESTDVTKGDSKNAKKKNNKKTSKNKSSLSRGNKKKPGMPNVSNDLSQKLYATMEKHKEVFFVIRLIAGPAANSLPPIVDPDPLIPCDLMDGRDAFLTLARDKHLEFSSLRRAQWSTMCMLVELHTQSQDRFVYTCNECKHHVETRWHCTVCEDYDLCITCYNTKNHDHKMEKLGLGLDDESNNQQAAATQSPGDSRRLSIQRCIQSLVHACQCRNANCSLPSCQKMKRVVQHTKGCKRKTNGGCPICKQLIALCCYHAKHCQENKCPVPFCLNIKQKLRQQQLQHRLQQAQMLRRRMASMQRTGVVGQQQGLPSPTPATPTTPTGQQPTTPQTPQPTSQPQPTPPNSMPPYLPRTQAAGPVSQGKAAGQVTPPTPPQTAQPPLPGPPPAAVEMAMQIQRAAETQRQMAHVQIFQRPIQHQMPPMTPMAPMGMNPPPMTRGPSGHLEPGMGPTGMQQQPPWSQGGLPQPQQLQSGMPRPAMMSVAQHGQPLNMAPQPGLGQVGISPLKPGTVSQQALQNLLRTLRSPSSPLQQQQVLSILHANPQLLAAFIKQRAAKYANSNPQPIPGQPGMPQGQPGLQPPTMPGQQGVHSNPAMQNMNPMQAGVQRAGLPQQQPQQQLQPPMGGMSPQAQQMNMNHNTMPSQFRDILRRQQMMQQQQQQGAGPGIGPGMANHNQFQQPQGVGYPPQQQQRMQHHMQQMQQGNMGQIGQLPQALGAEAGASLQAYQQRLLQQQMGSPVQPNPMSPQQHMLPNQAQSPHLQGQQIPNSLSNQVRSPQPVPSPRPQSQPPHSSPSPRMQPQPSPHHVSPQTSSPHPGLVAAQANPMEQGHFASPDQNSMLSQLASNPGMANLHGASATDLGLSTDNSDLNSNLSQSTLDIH

As for `CNC(=O)N1CCc2c(c(N3CCCc4cc(-c5cnn(CC(=O)NCCOCCC(=O)N[C@H](C(=O)N6C[C@H](O)C[C@H]6C(=O)NCc6ccc(-c7scnc7C)cc6)C(C)(C)C)c5)c(C(F)F)cc43)nn2C2CCOCC2)C1` [P-074, 3-(7-(difluoromethyl)-6-(1-(2-((2-(3-(((S)-1-((2S,4R)-4-hydroxy-2-((4-(4-methylthiazol-5-yl)benzyl)carbamoyl)pyrrolidin-1-yl)-3,3-dimethyl-1-oxobutan-2-yl)amino)-3-oxopropoxy)ethyl)amino)-2-oxoethyl)-1H-pyrazol-4-yl)-3,4-dihydroquinolin-1(2H)-yl)-N-methyl-1-(tetrahydro-2H-pyran-4-yl)-1,4,6,7-tetrahydro-5H-pyrazolo[4,3-c]pyridine-5-carboxamide], the IC50 in test [1] (Table 3) was more than 10000 nM. The inhibition at 0.01 µM on P300 (p300, 10 nM, Table 3) is less than 20%.
As for `CNC(=O)N1CCc2c(c(N3CCCc4cc(-c5cnn(C)c5)c(C(F)F)cc43)nn2C2CCN(C(=O)CCCCCCn3c(=O)n(C4CCC(=O)NC4=O)c4ccccc43)CC2)C1` (stereo not drawn) [P-106, 3-(7-(difluoromethyl)-6-(1-methyl-1H-pyrazol-4-yl)-3,4-dihydroquinolin-1(2H)-yl)-1-(1-(7-(3-(2,6-dioxopiperidin-3-yl)-2-oxo-2,3-dihydro-1H-benzo[d]imidazol-1-yl)heptanoyl)piperidin-4-yl)-N-methyl-1,4,6,7-tetrahydro-5H-pyrazolo[4,3-c]pyridine-5-carboxamide], 24.2 nM corresponded to half-maximal inhibition in test [1] (Table 3) (IC50). Also, the “Degradation (10 nM)” value at P300 (p300, 10 nM, Table 3) is reported as “B (B: 50% ≤ Degradation < 80%)”.
In turn, `CC(=O)N1CCc2c(c(N3CCCc4cc(-c5cnn(C)c5)c(C(F)F)cc43)nn2C2CCN(C(=O)CCCCCn3c(=O)n(C4CCC(=O)NC4=O)c4ccccc43)CC2)C1` (stereo not drawn) [P-107, 3-(3-(6-(4-(5-acetyl-3-(7-(difluoromethyl)-6-(1-methyl-1H-pyrazol-4-yl)-3,4-dihydroquinolin-1(2H)-yl)-4,5,6,7-tetrahydro-1H-pyrazolo[4,3-c]pyridin-1-yl)piperidin-1-yl)-6-oxohexyl)-2-oxo-2,3-dihydro-1H-benzo[d]imidazol-1-yl)piperidine-2,6-dione] returned an IC50 in test [1] (Table 3) of 20.4 nM. At P300 (p300, 10 nM, Table 3), the “Degradation (10 nM)” value is reported as “B (B: 50% ≤ Degradation < 80%)”.
In test [1] (Table 3), `CC(=O)N1CCc2c(c(N3CCCc4cc(-c5cnn(C)c5)c(C(F)F)cc43)nn2C2CCN(C(=O)CCCCCCCn3c(=O)n(C4CCC(=O)NC4=O)c4ccccc43)CC2)C1` (stereo not drawn) [P-135, 3-(3-(8-(4-(5-acetyl-3-(7-(difluoromethyl)-6-(1-methyl-1H-pyrazol-4-yl)-3,4-dihydroquinolin-1(2H)-yl)-4,5,6,7-tetrahydro-1H-pyrazolo[4,3-c]pyridin-1-yl)piperidin-1-yl)-8-oxooctyl)-2-oxo-2,3-dihydro-1H-benzo[d]imidazol-1-yl)piperidine-2,6-dione] gave an IC50 of 0.7 nM. Besides, the “Degradation (10 nM)” value on P300 (p300, 10 nM, Table 3) was “A (A: Degradation ≥ 80%)”.
Consider `CC(=O)N1CCc2c(c(N3CCCc4cc(-c5cnn(C)c5)c(C(F)F)cc43)nn2C2CCN(CCN3CCC(CNc4cccc5c4C(=O)N(C4CCC(=O)NC4=O)C5=O)CC3)CC2)C1` (stereo not drawn) [P-143, 4-(((1-(2-(4-(5-acetyl-3-(7-(difluoromethyl)-6-(1-methyl-1H-pyrazol-4-yl)-3,4-dihydroquinolin-1(2H)-yl)-4,5,6,7-tetrahydro-1H-pyrazolo[4,3-c]pyridin-1-yl)piperidin-1-yl)ethyl)piperidin-4-yl)methyl)amino)-2-(2,6-dioxopiperidin-3-yl)isoindoline-1,3-dione], for which, in test [1] (Table 3), inhibition was half-maximal at 1.5 nM (IC50). The “Degradation (10 nM)” value on P300 (p300, 10 nM, Table 3) is listed as “A (A: Degradation ≥ 80%)”.
The like results for `CC(=O)N1CCc2c(c(N3CCCc4cc(-c5cnn(C)c5)c(C(F)F)cc43)nn2C2CCN(C(=O)CCCCCCCCn3c(=O)n(C4CCC(=O)NC4=O)c4ccccc43)CC2)C1` (stereo not drawn) [P-163, 3-(3-(9-(4-(5-acetyl-3-(7-(difluoromethyl)-6-(1-methyl-1H-pyrazol-4-yl)-3,4-dihydroquinolin-1(2H)-yl)-4,5,6,7-tetrahydro-1H-pyrazolo[4,3-c]pyridin-1-yl)piperidin-1-yl)-9-oxononyl)-2-oxo-2,3-dihydro-1H-benzo[d]imidazol-1-yl)piperidine-2,6-dione] were, in that order, 0.9 nM and “A (A: Degradation ≥ 80%)”.
The like results for `CC(=O)N1CCc2c(c(N3CCCc4cc(-c5cnn(C)c5)c(C(F)F)cc43)nn2C2CCN(CCN3CCC(COc4cccc5c4C(=O)N(C4CCC(=O)NC4=O)C5=O)CC3)CC2)C1` (stereo not drawn) [P-167, 4-((1-(2-(4-(5-acetyl-3-(7-(difluoromethyl)-6-(1-methyl-1H-pyrazol-4-yl)-3,4-dihydroquinolin-1(2H)-yl)-4,5,6,7-tetrahydro-1H-pyrazolo[4,3-c]pyridin-1-yl)piperidin-1-yl)ethyl)piperidin-4-yl)methoxy)-2-(2,6-dioxopiperidin-3-yl)isoindoline-1,3-dione] were, in that order, 92 nM and “D (D: Degradation < 20%)”.
`CC(=O)N1CCc2c(c(N3CCCc4cc(-c5cnn(C)c5)c(C(F)F)cc43)nn2C2CCN(CCN3CCC(C4CN(c5cccc6c5C(=O)N(C5CCC(=O)NC5=O)C6=O)C4)CC3)CC2)C1` (stereo not drawn) [P-187, 4-(3-(1-(2-(4-(5-acetyl-3-(7-(difluoromethyl)-6-(1-methyl-1H-pyrazol-4-yl)-3,4-dihydroquinolin-1(2H)-yl)-4,5,6,7-tetrahydro-1H-pyrazolo[4,3-c]pyridin-1-yl)piperidin-1-yl)ethyl)piperidin-4-yl)azetidin-1-yl)-2-(2,6-dioxopiperidin-3-yl)isoindoline-1,3-dione] gave an IC50 in test [1] (Table 4) of 2.3 nM. In addition, on P300, the inhibition at 0.01 µM was more than 80%.
`CC(=O)N1CCc2c(c(N3CCCc4cc(-c5cnn(C)c5)c(C(F)F)cc43)nn2C2CCN(CCN3CCC(CCNc4cccc5c4C(=O)N(C4CCC(=O)NC4=O)C5=O)CC3)CC2)C1` (stereo not drawn) [P-188, 4-((2-(1-(2-(4-(5-acetyl-3-(7-(difluoromethyl)-6-(1-methyl-1H-pyrazol-4-yl)-3,4-dihydroquinolin-1(2H)-yl)-4,5,6,7-tetrahydro-1H-pyrazolo[4,3-c]pyridin-1-yl)piperidin-1-yl)ethyl)piperidin-4-yl)ethyl)amino)-2-(2,6-dioxopiperidin-3-yl)isoindoline-1,3-dione] had an IC50 in test [1] (Table 4) of 2.3 nM. Besides, the inhibition at 0.01 µM on P300 was more than 80%.
On the same counts, the results for `CC(=O)N1CCc2c(c(N3CCCc4cc(-c5cnn(C)c5)c(C(F)F)cc43)nn2C2CCN(CCN3CCOC(COc4cccc5c4C(=O)N(C4CCC(=O)NC4=O)C5=O)C3)CC2)C1` (stereo not drawn) [P-189, 4-((4-(2-(4-(5-acetyl-3-(7-(difluoromethyl)-6-(1-methyl-1H-pyrazol-4-yl)-3,4-dihydroquinolin-1(2H)-yl)-4,5,6,7-tetrahydro-1H-pyrazolo[4,3-c]pyridin-1-yl)piperidin-1-yl)ethyl)morpholin-2-yl)methoxy)-2-(2,6-dioxopiperidin-3-yl)isoindoline-1,3-dione] are 38 nM and more than 80%.
`CC(=O)N1CCc2c(c(N3CCCc4cc(-c5cnn(C)c5)c(C(F)F)cc43)nn2C2CCN(CCCN3CCC(CCc4cccc5c4C(=O)N(C4CCC(=O)NC4=O)C5=O)CC3)CC2)C1` (stereo not drawn) [P-190, 4-(2-(1-(3-(4-(5-acetyl-3-(7-(difluoromethyl)-6-(1-methyl-1H-pyrazol-4-yl)-3,4-dihydroquinolin-1(2H)-yl)-4,5,6,7-tetrahydro-1H-pyrazolo[4,3-c]pyridin-1-yl)piperidin-1-yl)propyl)piperidin-4-yl)ethyl)-2-(2,6-dioxopiperidin-3-yl)isoindoline-1,3-dione] had an IC50 in test [1] (Table 4) of 41.4 nM. On P300 (p300, 10 nM, Table 4), the inhibition at 0.01 µM is 50 to 80%.
On the same counts, the results for `CC(=O)N1CCc2c(c(N3CCCc4cc(-c5cnn(C)c5)c(C(F)F)cc43)nn2C2CCN(CCN3CCN(c4cccc5c4C(=O)N(C4CCC(=O)NC4=O)C5=O)CC3)CC2)C1` (stereo not drawn) [P-191, 4-(4-(2-(4-(5-acetyl-3-(7-(difluoromethyl)-6-(1-methyl-1H-pyrazol-4-yl)-3,4-dihydroquinolin-1(2H)-yl)-4,5,6,7-tetrahydro-1H-pyrazolo[4,3-c]pyridin-1-yl)piperidin-1-yl)ethyl)piperazin-1-yl)-2-(2,6-dioxopiperidin-3-yl)isoindoline-1,3-dione] are 179 nM and less than 20%.

Values taken from patent US20240100170A1, “CYCLIC-AMP RESPONSE ELEMENT BINDING PROTEIN (CBP) AND/OR ADENOVIRAL E1A BINDING PROTEIN OF 300 KDA (P300) DEGRADATION COMPOUNDS AND METHODS OF USE” (CULLGEN (SHANGHAI), INC., priority 2020, published 2024).
